Measured values taken from article PMC3008316 (Antiviral research, 2009).
Like-named read-outs stand apart in the source and are kept apart here. Marks after values point to notes of the source that are not given here.

Tests used:
PTV, Adames strain [1] = tested on: PTV, Adames strain; design: species or system Syrian hamsters; conditions: hamster, in vivo
PTV, Adames strain [2] = tested on: PTV, Adames strain; design: species or system C57BL/6 mice; conditions: mouse, in vivo
PICV, strain An 4763 [3] = format: in vivo, Syrian hamsters
[4] = tested on: phleboviruses (RVFV, PTV, SFNV); assay: organism not typed; format: cell-based
[5] = tested on: RVFV vaccine strain MP-12
[6] = tested on: RVFV vaccine strain MP-12; remark: listed apart in the source
PTV, Adames strain [7] = tested on: PTV, Adames strain
PTV, Adames strain [8] = tested on: PTV, Adames strain; remark: listed apart in the source
[9] = tested on: Sandfly fever virus, Naples strain (SFNV)
[10] = tested on: Sandfly fever virus, Naples strain (SFNV); remark: listed apart in the source
[11] = tested on: Tacaribe virus (TCRV), strain TRVL 11573
[12] = tested on: Tacaribe virus (TCRV), strain TRVL 11573; remark: listed apart in the source
[13] = tested on: Junin virus (JUNV) vaccine strain Candid 1
[14] = tested on: Junin virus (JUNV) vaccine strain Candid 1; remark: listed apart in the source
PICV, strain An 4763 [15] = tested on: PICV, strain An 4763
PICV, strain An 4763 [16] = tested on: PICV, strain An 4763; remark: listed apart in the source
Vero cells = conditions: monkey
in vitro [17] = conditions: monkey, CC50 ± SD
in vitro [18] = conditions: monkey, CC50 ± SD; remark: listed apart in the source
[19] = tested on: RVFV vaccine strain MP-12; assay: microbe, parasite or virus in culture; conditions: Rift Valley fever virus, Vero 76, read-out: EC50 ± SD (CPER)
[20] = tested on: RVFV vaccine strain MP-12; assay: microbe, parasite or virus in culture; conditions: Rift Valley fever virus, Vero 76, read-out: EC90 ± SD (VYR)
PTV, Adames strain [21] = assay: microbe, parasite or virus in culture; conditions: Punta Toro virus, Vero 76, read-out: EC50 ± SD (CPER)
PTV, Adames strain [22] = assay: microbe, parasite or virus in culture; conditions: Punta Toro virus, Vero 76, read-out: EC90 ± SD (VYR)
[23] = tested on: Sandfly fever virus, Naples strain (SFNV); assay: microbe, parasite or virus in culture; conditions: sandfly fever Sicilian virus, Vero 76, read-out: EC50 ± SD (CPER)
[24] = tested on: Sandfly fever virus, Naples strain (SFNV); assay: microbe, parasite or virus in culture; conditions: sandfly fever Sicilian virus, Vero 76, read-out: EC90 ± SD (VYR)
[25] = tested on: Tacaribe virus (TCRV), strain TRVL 11573; assay: microbe, parasite or virus in culture; conditions: Mammarenavirus tacaribeense, Vero 76, read-out: EC50 ± SD (CPER)
[26] = tested on: Tacaribe virus (TCRV), strain TRVL 11573; assay: microbe, parasite or virus in culture; conditions: Mammarenavirus tacaribeense, Vero 76, read-out: EC90 ± SD (VYR)
[27] = tested on: Junin virus (JUNV) vaccine strain Candid 1; assay: microbe, parasite or virus in culture; conditions: Mammarenavirus juninense, Vero, read-out: EC50 ± SD (CPER)
[28] = tested on: Junin virus (JUNV) vaccine strain Candid 1; assay: microbe, parasite or virus in culture; conditions: Mammarenavirus juninense, Vero, read-out: EC90 ± SD (VYR)
PICV, strain An 4763 [29] = assay: microbe, parasite or virus in culture; conditions: Pichinde virus, Vero, read-out: EC50 ± SD (CPER)
PICV, strain An 4763 [30] = assay: microbe, parasite or virus in culture; conditions: Pichinde virus, Vero, read-out: EC90 ± SD (VYR)
[31] = hamster, in vivo, po, 25 mg/kg/day
[32] = hamster, in vivo, po, 50 mg/kg/day
[33] = hamster, in vivo, po, 100 mg/kg/day

NC(=O)c1nc(F)cnc1O [T-705, 6-fluoro-3-hydroxy-2-pyrazinecarboxamide]
ED50 (survival) (PTV, Adames strain [1]): 112 µmol/kg/day | Mean virus titer ± SD, liver (PTV, Adames strain [1]): < 3.9 ± 1.5 (40) | Survival compared to placebo (PTV, Adames strain [1]): significant protection | ALT ± SD (PTV, Adames strain [1]; po, 25 mg/kg/day): 820 ± 1148 international units per liter | Mean virus titer ± SD, liver (PTV, Adames strain [1]; po, 25 mg/kg/day): < 5.9 ± 1.8 (80) | Mean virus titer ± SD, serum (PTV, Adames strain [1]; po, 25 mg/kg/day): < 5.4 ± 3.4 (60) | Percentage of animals with detectable virus, liver (PTV, Adames strain [1]; po, 25 mg/kg/day): < 5.9 ± 1.8 (80) % | Percentage of animals with detectable virus, serum (PTV, Adames strain [1]; po, 25 mg/kg/day): < 5.4 ± 3.4 (60) % | ALT ± SD (PTV, Adames strain [1]; po, 50 mg/kg/day): 52 ± 79 international units per liter | Mean virus titer ± SD, liver (PTV, Adames strain [1]; po, 50 mg/kg/day): < 3.6 ± 1.7 (40) | Percentage of animals with detectable virus, liver (PTV, Adames strain [1]; po, 50 mg/kg/day): < 3.6 ± 1.7 (40) % | ALT ± SD (PTV, Adames strain [1]; po, 100 mg/kg/day): 38 ± 19 international units per liter | Mean virus titer ± SD, serum (PTV, Adames strain [1]; po, 100 mg/kg/day): < 3.1 ± 1.9 (40) | Percentage of animals with detectable virus, liver (PTV, Adames strain [1]; po, 100 mg/kg/day): < 3.9 ± 1.5 (40) % | Percentage of animals with detectable virus, serum (PTV, Adames strain [1]; po, 100 mg/kg/day): < 3.1 ± 1.9 (40) % | ED50 (survival) (PTV, Adames strain [2]): 159 µmol/kg/day | Potency relative to T-1106 based on ALT molar dose response (PICV, strain An 4763 [3]; hamster, in vivo): 2.6 fold | Potency relative to T-1106 based on ED50 (PICV, strain An 4763 [3]; hamster, in vivo): 6.1 times | Survival compared to placebo (PICV, strain An 4763 [3]; hamster, in vivo): significantly protected | ED50 (survival) (PICV, strain An 4763 [3]; hamster, in vivo, po): 72 µmol/kg/day | ALT ± SD (PICV, strain An 4763 [3]; [31]): 859 ± 782 international units per liter | Mean virus titer ± SD, liver (PICV, strain An 4763 [3]; [31]): 7.6 ± 0.8 (100) | Mean virus titer ± SD, serum (PICV, strain An 4763 [3]; [31]): 6.6 ± 1.0 (100) | Percentage of animals with detectable virus, liver (PICV, strain An 4763 [3]; [31]): 7.6 ± 0.8 (100) % | Percentage of animals with detectable virus, serum (PICV, strain An 4763 [3]; [31]): 6.6 ± 1.0 (100) % | Mean virus titer ± SD, liver (PICV, strain An 4763 [3]; [32]): 5.8 ± 1.1 (100) | Mean virus titer ± SD, serum (PICV, strain An 4763 [3]; [32]): < 3.8 ± 1.6 (80) | Percentage of animals with detectable virus, liver (PICV, strain An 4763 [3]; [32]): 5.8 ± 1.1 (100) % | Percentage of animals with detectable virus, serum (PICV, strain An 4763 [3]; [32]): < 3.8 ± 1.6 (80) % | Mean virus titer ± SD, liver (PICV, strain An 4763 [3]; [33]): < 3.3 ± 0.5 (60) | Mean virus titer ± SD, serum (PICV, strain An 4763 [3]; [33]): < 1.8 (0) ^** | Percentage of animals with detectable virus, liver (PICV, strain An 4763 [3]; [33]): < 3.3 ± 0.5 (60) % | Percentage of animals with detectable virus, serum (PICV, strain An 4763 [3]; [33]): < 1.8 (0) ^** % | Survival outcome (PICV, strain An 4763 [3]; n=10): complete protection | Animals protected (survival) (PICV, strain An 4763 [3]; n=10, 25 mg/kg/day): 70% | Animals protected (survival) (PICV, strain An 4763 [3]; n=10, 50 mg/kg/day): 80% | Inhibitory concentrations, range [4]: 3 to 55 µM | EC50 ([4]; read-out: EC50 values, range (CPE reduction assay)): 27 to 55 µM | EC90 ([4]; read-out: EC90 values, range (VYR)): 3 to 19 µM | SI (CC50/EC50) [5]: >236 | SI (CC50/EC90) [6]: >530 | SI (CC50/EC50) (PTV, Adames strain [7]): >68 | SI (CC50/EC90) (PTV, Adames strain [8]): >197 | SI (CC50/EC50) [9]: 195 | SI (CC50/EC90) [10]: 1952 | SI (CC50/EC50) [11]: >187 | SI (CC50/EC90) [12]: >405 | SI (CC50/EC50) [13]: >285 | SI (CC50/EC90) [14]: >387 | SI (CC50/EC50) (PICV, strain An 4763 [15]): 194 | SI (CC50/EC90) (PICV, strain An 4763 [16]): 202 | CC50 (Vero cells): 4860 ± 409 µM | CC50 (in vitro [17]): > 6360 µM | CC50 (in vitro [18]): > 5410 µM | EC50 [19]: 27 ± 5 µM | EC90 [20]: 12 ± 4 µM | EC50 (PTV, Adames strain [21]): 55 ± 35 µM | EC90 (PTV, Adames strain [22]): 19 ± 11 µM | EC50 [23]: 30 ± 15 µM | EC90 [24]: 3 ± 1 µM | EC50 [25]: 26 ± 13 µM | EC90 [26]: 12 ± 4 µM | EC50 [27]: 19 ± 5 µM | EC90 [28]: 14 ± 3 µM | EC50 (PICV, strain An 4763 [29]): 25 ± 6 µM | EC90 (PICV, strain An 4763 [30]): 24 ± 5 µM
